Laboratory results taken from patent publication USRE39591E1, “6-O-substituted ketolides having antibacterial activity” (Abbott Laboratories, priority 1996, dated 2007).
In brackets after ≈: the same amount, converted by molar mass.

System: up to 32 different microorganisms
Assay: in vitro antibacterial activity (MIC), agar dilution on Brain Heart Infusion (BHI) agar with Steers replicator
Assay type: cell-based
Details: unit assumed
How it was run: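 Up to 32 strains were replicator-inoculated (1:100, or 1:10 for Micrococcus and Streptococcus) onto BHI agar plates holding serial compound dilutions and kept 20-24 h at 35-37° C. Plates were read visually against drug-free growth controls, with erythromycin A run alongside; MIC was the lowest concentration giving no growth, slight haze or sparse colonies.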

[1] = Candida albicans CCH 442 (code TT)
[2] = Enterococcus faecism ATCC 8043 (code II)
[3] = Escherichia coli DC-2 (code SS)
[4] = Escherichia coli JUHL (code QQ)
[5] = Micrococcus luteus ATCC 4698 (code PP)
[6] = Micrococcus luteus ATCC 9341 (code OO)
[7] = Mycobacterium smegmatis ATCC 114 (code UU)
[8] = Nocardia Asteroides ATCC9970 (code VV)
[9] = Staphylococcus aureus 1775 (code GG)
[10] = Staphylococcus aureus A5177 (code BB)
[11] = Staphylococcus aureus A-5278 (code CC)
[12] = Staphylococcus aureus ATCC 6538P (code AA)
[13] = Staphylococcus aureus CMX 553 (code FF)
[14] = Staphylococcus aureus CMX 642A (code DD)
[15] = Staphylococcus aureus NCTC10649M (code EE)
[16] = Staphylococcus epidermidis 3519 (code HH)
[17] = Streptococcus agalactiae CMX 508 (code KK)
[18] = Streptococcus bovis A-5169 (code JJ)
[19] = Streptococcus pyogenes 930 (code MM)
[20] = Streptococcus pyogenes EES61 (code LL)
[21] = Streptococcus pyogenes PIU 2548 (code NN)
[22] = Haemophilis influenzae DILL AMP R (code WW)
[23] = Streptococcus Pneumonia 5649 (code ZZA)
[24] = Streptococcus Pneumonia 5979 (code ZZ)
[25] = Streptococcus Pneumonia ATCC6303 (code XX)
[26] = Streptococcus Pneumonia GYR 1171 (code YY)

CCCO[C@@]1(C)C[C@@H](C)C(=O)[C@H](C)[C@@H](O)[C@](C)(O)[C@@H](CC)OC(=O)[C@H](C)C(=O)[C@H](C)[C@H]1O[C@@H]1O[C@H](C)C[C@H](N(C)C)[C@H]1O [Example 3, Compound of Formula (VIII): X is O, R is propyl]
MIC [1]: > 100 µg/mL | MIC [2]: 25 µg/mL | MIC [3]: > 100 µg/mL | MIC [4]: > 100 µg/mL | MIC (Escherichia coli SS (code RR)): 50 µg/mL | MIC [5]: 100 µg/mL | MIC [6]: 12.5 µg/mL | MIC [7]: > 100 µg/mL | MIC [8]: 12.5 µg/mL | MIC [9]: > 100 µg/mL | MIC [10]: > 100 µg/mL | MIC [11]: > 100 µg/mL | MIC [12]: 25 µg/mL | MIC [13]: 25 µg/mL | MIC [14]: 100 µg/mL | MIC [15]: 25 µg/mL | MIC [16]: 50 µg/mL | MIC [17]: 25 µg/mL | MIC [18]: 25 µg/mL | MIC [19]: > 100 µg/mL | MIC [20]: 100 µg/mL | MIC [21]: 100 µg/mL

CC[C@H]1OC(=O)[C@H](C)C(=O)[C@H](C)[C@@H](O[C@@H]2O[C@H](C)C[C@H](N(C)C)[C@H]2O)[C@@](C)(OCCNCc2ccccc2)C[C@@H](C)C(=O)[C@H](C)[C@@H](O)[C@]1(C)O [Example 9, Compound of Formula (VIII): X is O, R is —CH2CH2NHCH2-Phenyl]
MIC [1]: > 100 µg/mL | MIC [2]: 0.78 µg/mL | MIC [3]: 25 µg/mL | MIC [4]: 25 µg/mL | MIC (Escherichia coli SS (code RR)): 0.39 µg/mL | MIC [22]: 16 µg/mL | MIC [5]: 0.78 µg/mL | MIC [6]: 0.2 µg/mL | MIC [7]: 6.2 µg/mL | MIC [8]: 0.2 µg/mL | MIC [9]: > 100 µg/mL | MIC [10]: 1.56 µg/mL | MIC [11]: > 100 µg/mL | MIC [12]: 3.1 µg/mL | MIC [13]: 3.1 µg/mL | MIC [14]: 6.2 µg/mL | MIC [15]: 0.78 µg/mL | MIC [16]: 3.1 µg/mL | MIC [23]: 4 µg/mL | MIC [24]: > 64 µg/mL | MIC [25]: 0.25 µg/mL | MIC [26]: 0.25 µg/mL | MIC [17]: 0.39 µg/mL | MIC [18]: 0.05 µg/mL | MIC [19]: > 100 µg/mL | MIC [20]: 0.39 µg/mL | MIC [21]: 0.78 µg/mL

CCC1OC(=O)C(C)C(=O)C(C)C(OC2OC(C)CC(N(C)C)C2O)C(C)(OCC=Cc2ccc3c(c2)OCO3)CC(C)C(=O)C(C)C2NC(=O)OC12C (centres unmarked) [Example 188, R is —CH2CH═CH-(3,4-methylenedioxyphenyl)]
MIC [1]: > 100 µg/mL | MIC [2]: 0.05 µg/mL (≈ 0.0659 µM) | MIC [3]: > 100 µg/mL | MIC [4]: > 100 µg/mL | MIC (Escherichia coli SS (code RR)): 0.78 µg/mL (≈ 1.03 µM) | MIC [22]: 8 µg/mL (≈ 10.5 µM) | MIC [5]: 0.2 µg/mL (≈ 0.264 µM) | MIC [6]: 0.02 µg/mL (≈ 0.0264 µM) | MIC [7]: 0.78 µg/mL (≈ 1.03 µM) | MIC [8]: 0.39 µg/mL (≈ 0.514 µM) | MIC [9]: > 100 µg/mL | MIC [10]: 0.1 µg/mL (≈ 0.132 µM) | MIC [11]: > 100 µg/mL | MIC [12]: 0.1 µg/mL (≈ 0.132 µM) | MIC [13]: 0.1 µg/mL (≈ 0.132 µM) | MIC [14]: 0.1 µg/mL (≈ 0.132 µM) | MIC [15]: 0.2 µg/mL (≈ 0.264 µM) | MIC [16]: 0.2 µg/mL (≈ 0.264 µM) | MIC [23]: 1 µg/mL (≈ 1.32 µM) | MIC [24]: > 64 µg/mL | MIC [25]: 0.03 µg/mL (≈ 0.0395 µM) | MIC [26]: 0.03 µg/mL (≈ 0.0395 µM) | MIC [17]: ≤ 0.005 µg/mL | MIC [18]: ≤ 0.005 µg/mL | MIC [19]: 25 µg/mL (≈ 32.9 µM) | MIC [20]: 0.01 µg/mL (≈ 0.0132 µM) | MIC [21]: 0.1 µg/mL (≈ 0.132 µM)

CC[C@H]1OC(=O)[C@H](C)C(=O)[C@H](C)[C@@H](O[C@@H]2O[C@H](C)C[C@H](N(C)C)[C@H]2O)[C@@](C)(OCCNCCc2ccccc2)C[C@@H](C)C(=O)[C@H](C)[C@H]2NC(=O)O[C@@]21C [Example 222, Compound of Formula (IX): L is CO, T is NH, R is —CH2CH2NHCH2CH2Phenyl]
MIC (organism code AA): 0.2 µg/mL | MIC (organism code BB): 0.1 µg/mL | MIC (organism code CC): > 100 µg/mL | MIC (organism code DD): 0.39 µg/mL | MIC (organism code EE): 0.2 µg/mL | MIC (organism code FF): 0.2 µg/mL | MIC (organism code GG): > 100 µg/mL | MIC (organism code HH): 0.2 µg/mL | MIC (organism code II): 0.02 µg/mL | MIC (organism code JJ): ≤ 0.005 µg/mL | MIC (organism code KK): 0.02 µg/mL | MIC (organism code LL): ≤ 0.005 µg/mL | MIC (organism code MM): > 100 µg/mL | MIC (organism code NN): 0.39 µg/mL | MIC (organism code OO): 0.01 µg/mL | MIC (organism code PP): 0.2 µg/mL | MIC (organism code QQ): 25 µg/mL | MIC (organism code RR): 0.1 µg/mL | MIC (organism code SS): 25 µg/mL | MIC (organism code TT): > 100 µg/mL | MIC (organism code UU): 0.78 µg/mL | MIC (organism code VV): 0.2 µg/mL | MIC (organism code WW): 4 µg/mL | MIC (organism code XX): 0.03 µg/mL | MIC (organism code YY): 0.06 µg/mL | MIC (organism code ZZ): > 128 µg/mL | MIC (organism code ZZA): 2 µg/mL

CCC1OC(=O)C(C)C(=O)C(C)C(OC2OC(C)CC(N(C)C)C2OC(C)=O)C(C)(OCC=Cc2cnc3ccccc3c2)CC(C)C(=O)C(C)C2NC(=O)OC12C (centres unmarked) [Example 198, Compound of Formula (III): L is CO, T is NH, R^c is acetyl; R is —CH2CH═CH-(3-quinolyl)]
MIC [1]: > 100 µg/mL | MIC [2]: 0.02 µg/mL | MIC [3]: 50 µg/mL | MIC [4]: 50 µg/mL | MIC (Escherichia coli SS (code RR)): 0.1 µg/mL | MIC [5]: 0.1 µg/mL | MIC [6]: ≤ 0.005 µg/mL | MIC [7]: 0.39 µg/mL | MIC [8]: 0.02 µg/mL | MIC [9]: > 100 µg/mL | MIC [10]: 0.05 µg/mL | MIC [11]: > 100 µg/mL | MIC [12]: 0.05 µg/mL | MIC [13]: 0.02 µg/mL | MIC [14]: 0.05 µg/mL | MIC [15]: 0.05 µg/mL | MIC [16]: 0.1 µg/mL | MIC [17]: ≤ 0.005 µg/mL | MIC [18]: ≤ 0.005 µg/mL | MIC [19]: 0.39 µg/mL | MIC [20]: ≤ 0.005 µg/mL | MIC [21]: 0.1 µg/mL
